Test [1] relates to LTB4 synthesis by rat glycogen-elicited polymorphonuclear leukocytes (PMN). The test can be described thus: inhibition of LTB4 synthesis by rat glycogen-elicited polymorphonuclear leukocytes (PMN). The test is classed as cell-based, rat (female Wistar). To be noted: Leukocyte. From the text:
This is especially true with respect to 5,12-diHETE, which is also denoted as LTB4 [see Ford-Hitchinson, J. Roy. […] Med., 74, 831 (1981)]. Compounds which inhibit the PLA2 -mediated release of arachidonic acid thereby effectively prevent the oxidation of arachidonic acid to the various leukotriene products via the lipoxygenase cascade. Accordingly, the specificity of action of PLA2 inhibitors can be determined by the activity of test compounds in this assay, which measures the ability of compounds to inhibit the synthesis of LTB4 by rat glycogen-elicited polymorphonuclear leukocytes (PMN) in the presence of exogenous substrate.
The assay is carried out as follows:
(§1) Rat polymorphonuclear leukocytes (PMNs) are obtained from female Wistar rats (150-200 g) which receive an injection of 6% glycogen (10 ml i.p.). Rats are sacrificed 18-24 hours post injection by CO2 asphyxiation and the elicited cells are harvested by peritoneal lavage using physiological saline (0.9% NaCl). The exudate is centrifuged at 400 xg for 10 minutes. The supernatant fluid is discarded and the cell pellet is resuspended to a concentration of 2.0×10^7 cells/mL in HBSS containing Ca^++ and Mg^++ and 10 μM L-cysteine.
(§2) To 1 mL aliquots of cell suspension, test drugs or vehicle are added, then preincubated at 37° C. for 10 minutes. A23187 (1 μM), [^3 H]-AA (3.0 μCi/mL) and unlabeled AA (1 μM) are then added and the samples are further incubated for 10 minutes. The reaction is terminated by centrifugation and pelleting cells. Supernatants are then analyzed by HPLC analysis on a 15 cm×4.6 mm ID supelcosil LC-18 (Supelco)(3M) column, using a two solvent system at a flow rate of 1.4 mL total flow as follows:
Gradient: (system is equilibrated with Solvent A)
Percent solvent changes are accomplished in a linear fashion.
Injections: 140 μL of each supernatant is injected directly onto column and ^3 H arachidonic acid metabolites are monitored using an on-line radioactivity detector (Ramona, IN/US, Fairfield, N.J.).
Standards: 10^4 -2.0×10^4 dpm of eicosanoids of interest are injected in 90 μL EtOH cocktail.
Results are expressed as percent inhibition at a given compound dose or as an IC50 value.

Test [2] concerns PGE2 synthesis by rat glycogen-elicited polymorphonuclear leukocytes (cyclooxygenase). The test can be described thus: inhibition of PGE2 (cyclooxygenase product) synthesis by rat glycogen-elicited polymorphonuclear leukocytes. It counts as cell-based, rat (female Wistar). To be noted: Leukocyte; for inhibition at 0.5 µM: read-out: % Inhibition (PGE2 synthesis). As for the experimental part: as §1, §2
In this assay, the procedure of Example 14 is carried out as described. However, in order to determine cyclooxygenase activity, the samples are cochromatographed with authentic reference [^3 H]-PGE2.

For another test, the system named is TxB2. The test can be described thus: reverse passive Arthus pleurisy assay, TxB2. To be noted: for ED50: Rattus norvegicus, po, read-out: ED50 TxB2; for ED50 / ED50 TxB2: 5 min. It counts as in vivo, rat (male Lewis). As for the experimental part:
(§3) The compounds of the invention are further tested in the reverse passive Arthus pleurisy assay to evaluate their effectiveness in inflammatory mediator release and/or the fluid and cellular phases of an inflammatory response.
(§4) A reverse passive Arthus reaction is induced in the pleural cavity of male Lewis rats (150-200 g; fasted overnight prior to use) by the intravenous administration of bovine serum albumin (BSA; 4 mg/0.2 ml) followed by 30 minutes later by the injection of rabbit anti-BSA (1 mg/0.2 ml; lyophilized IgG fraction; Organon Teknika, West Chester, Pa.) into the right pleural space under halothane anesthesia. Drugs or vehicle (0.5% Tween-80) control are administered orally in a volume of 1 ml/100 g body weight at 1 hour prior to the anti-BSA. Animals are sacrificed at either the time of peak eicosanoid production (i.e. 5 minutes after anti-BSA for immunoreactive TxB2 10 minutes for immunoreactive LTB4, 20 minutes for immunoreactive LTC4) or at the time of peak neutrophil infiltration (4 hours after anti-BSA) by CO2 inhalation. The pleural cavity is then exposed, the fluid exudate removed by gentle vacuum aspiration and the volume of exudate is recorded. For the determination of cellular infiltration, the pleural cavity is rinsed with 3 ml of 0.1% EDTA in sterile saline, and the recovered wash is pooled with the exudate. Cell number is determined on a model ZBI Coulter counter. For determination of eicosanoid production, undiluted pleural exudate is microfuged and the supernatant is extracted with ethanol (8-10 times volume). Extracts are either stored at -20° C., or are evaporated to dryness under a stream of N2 and reconstituted in radioimmunoassay (RIA) buffer.
(§5) Eicosanoids are quantitated by RIA according to the procedure specified by the RIA kit manufacturer (Advanced Magnetics, Cambridge, Mass.). Briefly, 100 μl of ^3 H-labeled eicosanoid and 100 μl of specific antibody are sequentially added to 100 μl of extracted pleural exudate in BGG -phosphate buffer which contains 0.01M phosphate, 0.1% bovine gamma globulin and 0.1% sodium azide at pH 7.0. Antibody-bound eicosanoid is separated from unbound eicosanoid by the addition of 750 μl of dextran (0.4%)-coated charcoal (0.4% Norit A) containing 0.1% sodium azide. The mixture is centrifuged at 2000 RPM at 5° C. for 15 minutes to pellet the charcoal and adsorbed unbound eicosanoid. Antibody-bound labeled eicosanoid is quantitated by counting in a liquid scintillation counter, and is correlated to concentration by a standard curve.
(§6) Inflammatory cells are expressed as 10^6 cells/ml, pleural exudate is expressed as ml of fluid, and the amount of eicosanoids in the pleural cavity is expressed as ng/ml of exudate. Mean±S.E.M. is determined for each group. Percent inhibition (% I) of cell number, exudate volume and eicosanoid production is calculated for vehicle-treated control groups, and the responses in drug-treated rats are then expressed as the mean % I of the control. […] Exp. Ther., 96, 99-113 (1949).

A further test relates to LTB4. The test can be described thus: reverse passive Arthus pleurisy assay, LTB4. The test is classed as in vivo, rat (male Lewis). To be noted: for ED50: Rattus norvegicus. As for the experimental part: as §3, §4, §5, §6
In another test the test system is Fluid Exudation. The test can be described thus: reverse passive Arthus pleurisy assay, fluid exudation. The test is classed as in vivo, rat (male Lewis). To be noted: 1 hour prior to anti-BSA, standard drugs; for ED30: Rattus norvegicus, po; for ED30 Fluid Exudation: p.o. The procedure: as §3, §4, §6
In the next test the test system is Cellular Influx. The test can be described thus: reverse passive Arthus pleurisy assay, cellular influx. The test is classed as in vivo, rat (male Lewis). To be noted: Rattus norvegicus, po, 4 h, 1 hour prior to anti-BSA; standard drugs. The procedure:
as §3, §4, §6

Another test addresses T1, Human Synovial PLA2 (Homo sapiens, UniProt P14555).
T1 construct: Purified human synovial fluid; from tissue; host or cells: human synovial fluid (purified)
T1 sequence (P14555 21-144): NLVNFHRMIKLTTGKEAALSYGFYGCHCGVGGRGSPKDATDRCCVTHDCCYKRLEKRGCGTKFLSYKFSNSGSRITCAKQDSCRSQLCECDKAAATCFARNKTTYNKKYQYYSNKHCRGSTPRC
The test can be described thus: in vitro isolated phospholipase A2 assay, human synovial fluid PLA2. The test is classed as biochemical. To be noted: read-out: % Inhibition at 10 μM HSF. The procedure: The compounds of the invention are tested in an in vitro isolated phospholipase A2 assay to determine the ability of the test compounds to inhibit the release of arachidonic acid from an arachidonic acid-containing substrate by the action of phospholipase A2 enzyme from human and non-human sources.
Into a 15 mL polypropylene tube are added the following:
^ 6 Two human PLA2 enzymes are used:
b) Purified human synovial fluid.
Incubate the 100 μL reaction mixture for 10 minutes at 37° C. in a shaking water bath. The reaction is terminated by the addition of 2 mL tetrahydrofuran, followed by vortexing. NH2 columns (100 μg/mL--Analytichem International) are conditioned with 0.5 mL tetrahydrofuran followed by 0.5 mL tetrahydrofuran/water (2 mL:0.1 mL, v/v).
The sample is loaded onto the columns and slowly drawn through them. The hydrolyzed arachidonic acid retained in the columns is eluted therefrom with 1 mL tetrahydrofuran/glacial acetic acid (2%). The arachidonic acid is transferred to scintillation vials and quantitated by β-counting analysis. A "total counts" sample is prepared by pipetting 25 μL ^3 H-arachidonate E. coli directly into a scintillation vial to which is added 1 mL tetrahydrofuran. 10 mL aquasol (scintillation cocktail) is added to all samples.

[3] abbreviates: at 0.5 μM, negative values denote potentiation of cyclooxygenase.
Setting [4] is: p.o., 1 hour prior to anti-BSA, standard drugs.
Setting [5] is: negative values denote potentiation of cyclooxygenase.
Setting [6] is: at 10 μM, human synovial fluid, negative values denote potentiation of HSF.

SMILES strings stand for the structures. Read-outs that look alike come from different tables or passages of the source.

Turning to `CC(=O)c1ccc(-c2ccc(OCc3ccc4ccccc4n3)cc2)c([N+](=O)[O-])c1` [Example 1, 1-[2-Nitro-4'-(2-quinolinylmethoxy)-[1,1'-biphenyl]4-yl]ethanone], the inhibition at 0.5 µM in test [1] was 95%; in test [2] (setting [3]), -13%.
For the compound `O=C(O)Cc1ccc(-c2ccc(OCc3ccc4ccccc4n3)cc2)c(F)c1` [Example 2, 2-Fluoro-4'-(2-quinolinylmethyoxy)-[1,1'-biphenyl]-4-acetic acid], the inhibition at 0.5 µM in test [1] was 91%; in test [2], -22%.
For the compound `O=C1CCN(c2ccccc2)N1` [Phenidone], the ED50 in the test on TxB2 (setting [4]) is 69 mg/kg; in the test on LTB4 (po, 1 hour prior to anti-BSA, standard drugs, read-out: ED50 LTB4), 10 mg/kg. The results for the ED30 with Fluid Exudation and in the test on Cellular Influx were 21 mg/kg and 23 mg/kg, respectively.
In the case of `O=C(O)CCc1nc(-c2ccc(OCc3ccc4ccccc4c3)cc2)c(-c2ccccc2)o1` [Example 6, 4-[4-[2-Naphthalenylmethoxy]phenyl]-5-phenyl-2-oxazole propanoic acid], the figures for the inhibition at 0.5 µM in test [1] and in test [2] were 81% and -12%, respectively. The inhibition at 10 µM is 95% in test [1] and -191% in test [2] (setting [5]).
Turning to `COC(=O)CCc1nc(-c2ccc(OCc3ccc4ccccc4c3)cc2)c(-c2ccccc2)o1` [Example 6A, 4-[4-[2-Naphthalenylmethoxy]phenyl]-5-phenyl-2-oxazole propanoic acid methylester], the results for the inhibition at 0.5 µM in test [1] and in test [2] (setting [3]) were 63% and -29%, respectively. The inhibition at 10 µM in test [1] was 94%; in test [2] (setting [5]), -79%.
Take `C[C@@H]1C[C@H]2[C@@H]3CCC4=CC(=O)C=C[C@]4(C)[C@@]3(F)[C@@H](O)C[C@]2(C)[C@@]1(O)C(=O)CO` [Dexamethasone]: in the test on Fluid Exudation, the “ED30 Fluid Exudation” value was found to be 0.05 mg/kg p.o. This compound had an ED30 in the test with Cellular Influx of 0.13 mg/kg.
As to `Cn1c(COc2ccc(-c3nc(CCC(=O)O)oc3-c3ccccc3)cc2)nc2ccccc21` [Example 7, 4-[4-[(1-Methyl-1H-benzimidazol-2-yl)methoxy]phenyl]-5-phenyl-2-oxazole propanoic acid], the inhibition at 10 µM in test [1] amounted to 85%.
Take `CN1C(C(=O)Nc2ccccn2)=C(O)c2ccccc2S1(=O)=O` [Piroxicam]: the ED30 is 1 mg/kg in the test on Fluid Exudation and 3 mg/kg in the test with Cellular Influx.
Take `O=C(O)Cc1cccc(C(=O)c2ccc(OCc3ccc4ccccc4n3)cc2)c1` [Example 3, 3-[4-(2-Quinolinylmethoxy)benzoyl]benzene acetic acid]: the results for the inhibition at 0.5 µM in test [1] and in test [2] (setting [3]) were 38% and -8%, respectively. The inhibition at 10 µM in test [1] worked out at 87%; in test [2] (setting [5]) it was 8%; at Human Synovial PLA2 (setting [6]) it was 25.5%.
On to `O=C(O)Cc1cccc(C(=O)c2ccc(OCc3ccc4ccccc4c3)cc2)c1` [Example 4, 3-[4-(2-Naphthalenylmethoxy)benzoyl]benzene acetic acid], for which the inhibition at 10 µM is 8% in test [1], -31% in test [2] (setting [5]) and 15.1% on Human Synovial PLA2 (setting [6]).
Regarding `COc1ccc2cc([C@H](C)C(=O)O)ccc2c1` [Naproxen], the “ED50 TxB2” value in the test on TxB2 (setting [4]) was 0.24 mg/kg p.o. Further, in the test on LTB4 (4 mg/kg p.o.), the “% Inh LTB4” value is reported as 0%. For the same compound, the “ED30 Fluid Exudation” value in the test with Fluid Exudation turned out to be 3.9 mg/kg p.o.
In the case of `C[C@H](C(=O)O)c1ccc2cc(OCc3ccc4ccccc4n3)ccc2c1.NC(CO)(CO)CO` [Wy-50,295-A], the “% Inh TxB2” value in the test on TxB2 (75 mg/kg p.o.) is on record as 0%.
As for `O=C(O)Cc1ccccc1Nc1c(Cl)cccc1Cl` [Diclofenac], the ED50 in the test on TxB2 was 6 mg/kg.
For the compound `O=C(O)Cc1ccc(-c2ccc(OCc3ccc4ccccc4n3)cc2)c(F)c1` [Example 9, 2-Fluoro-4'-(2-quinolinylmethoxy)[1,1'-biphenyl]-4-acetic acid, 2-amino-2-hydroxymethyl-1,3-propane diol], in the test with LTB4 (reverse passive Arthus pleurisy, oral, read-out: ED50 (LTB4 Synthesis)), the ED50 turned out to be 0.8 mg/kg.
For the compound `CN=C1CCN(c2cccc(C(F)(F)F)c2)N1` [BW540C], the “ED50 TxB2” value in the test on TxB2 (setting [4]) is 19 mg/kg p.o. Moreover, the “ED50 LTB4” value in the test on LTB4 (setting [4]) is reported as 30 mg/kg p.o.
For the compound `CC(C(=O)O)c1cccc(C(=O)c2ccccc2)c1` (stereo not drawn) [ketoprofen], on Human Synovial PLA2, the inhibition at 10 µM is -16.9%. Also, the ED50 in the test with TxB2 stood at 0.18 mg/kg.

One may read the inhibition as the change of the read-out against control, counted positive when it falls. Broadly, the ED50 is the dose that gives a 50% effect, or the effect in half of the subjects.

(Values after patent publication US5071988A, “Substituted benzoylbenzene-, biphenyl- and 2-oxazole-alkanoic acid derivatives” (American Home Products Corporation, priority 1991, dated 1991).)
